Assay results taken from patent US11590117B2, “Treatment of a hematologic malignancy with 2-(4-chlorophenyl)-n-((2-(2,6-dioxopiperidin-3-yl)-1-oxoisoindolin-5-yl)methyl)-2,2-difluoroacetamide” (priority 2016, dated 2023).
Where two headings read alike, the source gives them in different places.

Key:
[1] = tested on: HR-MDS, sAML and normal bone marrow progenitors; test: SL/M2 stromal co-culture colony forming assay (cell survival assay); type: cell-based, human
Description: Methods. Mouse stromal cells SL/M2 stably expressing human interleukin-3 (IL-3), granulocyte colony stimulating factor (G-CSF) and stem cell factor (SCF) were cultured to confluency, followed by gamma-irradiation. Human CD34+ bone marrow cells isolated from 3 high-risk MDS patients (HR-MDS), 3 secondary AML patients arising from MDS (sAML) and 5 age-matched healthy donors were then cultured with inactivated SL/M2 cells for a week. Next, human progenitor cells were quantified by FACS and cells were plated in methylcellulose for colony forming assay (cell survival assay). After two weeks, 20-25 colonies were picked from each condition, resuspended and replated in fresh methylcellulose for 2nd round of colony forming assay (cell self-renewal assay).

HL-60 human AML cells = test: HL-60 IV AML xenograft model, survival study; type: in vivo, SCID mice
Description: In this study, Compound 1 antitumor activity in the HL-60 IV AML xenograft model was studies. In this model, HL-60 human AML cells engraft in host BM and internal organs (eg, spleen, liver) and animals develop progressive peripheral leukocytosis. Female severe combined immunodeficiency (SCID) mice were inoculated with HL-60 cells by tail vein injection. To understand the effect of Compound 1 on the xenografted HL-60 cells, animals were dosed intraperitoneal (IP) with vehicle or Compound 1 (0.5, 1, 2.5, and 5 mg/kg) once daily (QD)×5 between Weeks 3 and 4 post-engraftment (AP6516, survival study) or animals were dosed IP twice daily (BID) with vehicle or Compound 1 for 5 or 10 consecutive days (5 mg/kg BID×5 or 2.5 mg/kg, BID×10) between Weeks 6 and 8 post-engraftment (Study AP6982, % human CD33+[hCD33+] cells in BM).
Tumor burden from the peripheral blood of HL-60-bearing animals was assessed by fluorescence-activated cell sorting (FACS) at Week 7 post-tumor cell inoculation. […] Mice from the vehicle control and Compound 1 treatment groups succumbed to disease burden starting on Day 54 for the vehicle control group and between Day 51 and Day 57 for the Compound 1 treatment groups. […] One mouse (1/8) from the 2.5 mg/kg Compound 1-treated group survived to study termination on Day 162.

OCI-AML3 = test: CellTiter-Glo (CTG) cell proliferation assay, 72 hours; type: cell-based, human; details: for IC50: liquid culture
Description: (§1) Preparation of Solutions of Test Article: Compounds were plated into black 384-well plates (Corning Inc.) to a final DMSO volume of 0.1% assuming a maximal volume of 50 μL. A 10-point dose response starting at 10 μM with a 1:3 dilution was printed in duplicate by acoustic dispense using the EDC ATS-100 platform.
(§2) Cell Proliferation Assays: The effect of Compound 1 on the proliferation/viability of the hematological cell lines (Table 1 Table, Table 2 and Table 3), THLE-2, or PBMCs was assessed after 72 hours incubation using CTG (Promega), according to manufacturer's instructions. Hematological cell lines were dispensed into compound plates by a Multidrop™ Combi Reagent Dispenser (Thermo Scientific, Waltham, Mass.) at a concentration of 0.1 to 0.3×10^6 cells per mL in a 50 μL total volume. THLE-2 cells were seeded out at 1000 cells per well in 50 μL volume and incubated for 72 hours. At 72 hours, 25 μL per well of CTG was dispensed by a Multidrop™ Combi Reagent Dispenser and adenosine triphosphate (ATP) release by viable cells was measured as relative luminescence units after 30 minutes using the Envision platform.
(§3) Proliferation was assessed using the CellTitre-Glo® assay. Results for cultures incubated with Compound 1 were normalized to results for control cultures for each cell line. The IC50 for inhibition of cell growth by Compound 1 was determined for each cell line using ActivityBase software.
(§4) Cultures of 11 different AML cell lines were incubated 72 hours with Compound 1 at concentrations of 0.5 nM to 10 μM. Proliferation was assessed using the CellTitre-Glo® assay. Results for cultures incubated with Compound 1 were normalized to results for control cultures for each cell line. Inhibition of cell growth was also determined in THLE-2 cells at Compound 1 concentrations of 0.1 nM to 100 μM and in PBMCs at Compound 1 concentrations of 0.5 nM to […]. The Compound 1 therapeutic window was calculated using area under the curve (AUC; Activity Area [Barretina et al, Nature (2012) 483603-607] measurements (in arbitrary units) as determined using GraphPad Prism software for plots of cell proliferation vs concentration and dividing the AUC for the immortalized (but nontumorigenic) human THLE-2 hepatocyte cell line or PBMCs by the AUC for the AML cell line.

MV-4-11 = test: as above; type: cell-based, human
Description: as §1, §2, §3, §4

KG-1 = test: as above; type: cell-based, human
Description: as §1, §2, §3, §4

U-937 = test: as above; type: cell-based, human
Description: as §1, §2, §3, §4

OCI-AML2 = test: as above; type: cell-based, human
Description: as §1, §2, §3, §4

[2] = OCI-AML3, AUC PBMCs divided by AUC AML cell line
[3] = OCI-AML3, AUC THLE-2 divided by AUC AML cell line
[4] = MV-4-11, AUC PBMCs divided by AUC AML cell line
[5] = MV-4-11, AUC THLE-2 divided by AUC AML cell line
[6] = KG-1, AUC PBMCs divided by AUC AML cell line
[7] = KG-1, AUC THLE-2 divided by AUC AML cell line
[8] = U-937, AUC PBMCs divided by AUC AML cell line
[9] = U-937, AUC THLE-2 divided by AUC AML cell line
[10] = OCI-AML2, AUC PBMCs divided by AUC AML cell line
[11] = OCI-AML2, AUC THLE-2 divided by AUC AML cell line

For `O=C1CCC(N2Cc3cc(CNC(=O)C(F)(F)c4ccc(Cl)cc4)ccc3C2=O)C(=O)N1` (centres unmarked) [Compound 1, 2-(4-chlorophenyl)-N-((2-(2,6-dioxopiperidin-3-yl)-1-oxoisoindolin-5-yl)methyl)-2,2-difluoroacetamide], the “colony formation (cell survival)” value [1] was “significant cytotoxicity”, the “mice surviving to study termination on Day 162” value (HL-60 human AML cells; 2.5 mg/kg group) was 1/8 and the overall survival (HL-60 human AML cells; 0.5, 1, 2.5, 5 mg/kg IP QD×5 between Weeks 3 and 4 post-engraftment) was “No overall survival benefit”. For the same compound, the “tumor burden from peripheral blood (FACS)” value (HL-60 human AML cells; Week 7 post-tumor cell inoculation, 0.5, 1, 2.5, 5 mg/kg IP QD×5, vs vehicle) was “No effect”, the IC50 (OCI-AML3; Homo sapiens, OCI-AML-3, 72 h, read-out: Proliferation IC50 (mean ± SD), OCI-AML3, 72 hours) was 3000 nM and the “Therapeutic Window Method 1 As Compared with PBMCs” value (OCI-AML3; [2]) was 0.45. The “Therapeutic Window Method 2 As Compared with PBMCs” value (OCI-AML3; [2]) was 0.3, the “Therapeutic Window Method 1 As Compared with THLE-2 Cells” value (OCI-AML3; [3]) was 0.70 and the “Therapeutic Window Method 2 As Compared with THLE-2 Cells” value (OCI-AML3; [3]) was 1.0. For the same compound, the AUC (OCI-AML3; OCI-AML3, Activity Area of proliferation vs concentration, 72 hours, 0.5 nM to 10 μM) was 563.0 arbitrary units, the IC50 (OCI-AML3; read-out: Proliferation IC50 (mean ± SD), OCI-AML3, 72 hours) was 3400 ± 3330 nM and the IC50 (MV-4-11; Homo sapiens, MV4-11, 72 h, read-out: Proliferation IC50 (mean ± SD)) was 29 ± 10 nM. The “Therapeutic Window Method 1 As Compared with PBMCs” value (MV-4-11; [4]) was 12, the “Therapeutic Window Method 2 As Compared with PBMCs” value (MV-4-11; [4]) was 7.1 and the “Therapeutic Window Method 1 As Compared with THLE-2 Cells” value (MV-4-11; [5]) was 19. The “Therapeutic Window Method 2 As Compared with THLE-2 Cells” value (MV-4-11; [5]) was 26.8, the AUC (MV-4-11; MV-4-11, Activity Area of proliferation vs concentration, 72 hours, 0.5 nM to 10 μM) was 20.5 arbitrary units and the IC50 (KG-1; Homo sapiens, KG-1, 72 h, read-out: Proliferation IC50 (mean ± SD)) was 15 ± 6 nM. For the same compound, the “Therapeutic Window Method 1 As Compared with PBMCs” value (KG-1; [6]) was 3.8, the “Therapeutic Window Method 2 As Compared with PBMCs” value (KG-1; [6]) was 2.2 and the “Therapeutic Window Method 1 As Compared with THLE-2 Cells” value (KG-1; [7]) was 6.0. For the same compound, the “Therapeutic Window Method 2 As Compared with THLE-2 Cells” value (KG-1; [7]) was 8.3, the AUC (KG-1; KG-1, Activity Area of proliferation vs concentration, 72 hours, 0.5 nM to 10 μM) was 65.8 arbitrary units and the IC50 (U-937; Homo sapiens, U-937, 72 h, read-out: Proliferation IC50 (mean ± SD)) was 74 ± 25 nM. The “Therapeutic Window Method 1 As Compared with PBMCs” value (U-937; [8]) was 6.3, the “Therapeutic Window Method 2 As Compared with PBMCs” value (U-937; [8]) was 3.6 and the “Therapeutic Window Method 1 As Compared with THLE-2 Cells” value (U-937; [9]) was 9.8. For the same compound, the “Therapeutic Window Method 2 As Compared with THLE-2 Cells” value (U-937; [9]) was 13.7, the AUC (U-937; U-937, Activity Area of proliferation vs concentration, 72 hours, 0.5 nM to 10 μM) was 40.0 arbitrary units and the IC50 (OCI-AML2; Homo sapiens, OCI-AML2, 72 h, read-out: Proliferation IC50 (mean ± SD)) was 57 ± 21 nM. The “Therapeutic Window Method 1 As Compared with PBMCs” value (OCI-AML2; [10]) was 14, the “Therapeutic Window Method 2 As Compared with PBMCs” value (OCI-AML2; [10]) was 8.1 and the “Therapeutic Window Method 1 As Compared with THLE-2 Cells” value (OCI-AML2; [11]) was 22. The “Therapeutic Window Method 2 As Compared with THLE-2 Cells” value (OCI-AML2; [11]) was 30.7 and the AUC (OCI-AML2; OCI-AML2, Activity Area of proliferation vs concentration, 72 hours, 0.5 nM to 10 μM) was 17.9 arbitrary units.
